Source: the NIST ThermoML archive (doi:10.1016/j.fluid.2015.10.027)
± gives the expanded uncertainty stated by the source.

Assay: heat capacity at constant pressure per volume; xn = mol fraction of the nth substance listed
Conditions: DSC, x1 = 0.066

Molecule `Cc1cccc(C)n1` [2,6-dimethylpyridine] + O has a heat capacity (270.67 K, Liquid mixture 1) of 3943000 ± 150000 J/K/m3, a heat capacity (271.17 K, Liquid mixture 1) of 3939000 ± 150000 J/K/m3 and a heat capacity (271.67 K, Liquid mixture 1) of 3932000 ± 150000 J/K/m3. For the same molecule, the heat capacity (272.17 K, Liquid mixture 1) was 3933000 ± 150000 J/K/m3, the heat capacity (272.67 K, Liquid mixture 1) was 3929000 ± 150000 J/K/m3 and the heat capacity (273.17 K, Liquid mixture 1) was 3934000 ± 150000 J/K/m3. For the same molecule, the heat capacity (273.67 K, Liquid mixture 1) was 3928000 ± 150000 J/K/m3, the heat capacity (274.17 K, Liquid mixture 1) was 3930000 ± 150000 J/K/m3 and the heat capacity (274.67 K, Liquid mixture 1) was 3924000 ± 150000 J/K/m3. For the same molecule, the heat capacity (275.17 K, Liquid mixture 1) was 3925000 ± 150000 J/K/m3, the heat capacity (275.67 K, Liquid mixture 1) was 3922000 ± 150000 J/K/m3 and the heat capacity (276.17 K, Liquid mixture 1) was 3920000 ± 150000 J/K/m3. It also gave a heat capacity (276.67 K, Liquid mixture 1) of 3918000 ± 150000 J/K/m3, a heat capacity (277.17 K, Liquid mixture 1) of 3918000 ± 150000 J/K/m3 and a heat capacity (277.67 K, Liquid mixture 1) of 3919000 ± 150000 J/K/m3. It also gave a heat capacity (278.17 K, Liquid mixture 1) of 3918000 ± 150000 J/K/m3, a heat capacity (278.67 K, Liquid mixture 1) of 3916000 ± 150000 J/K/m3 and a heat capacity (279.17 K, Liquid mixture 1) of 3913000 ± 150000 J/K/m3. It also gave a heat capacity (279.67 K, Liquid mixture 1) of 3916000 ± 150000 J/K/m3, a heat capacity (280.17 K, Liquid mixture 1) of 3914000 ± 150000 J/K/m3 and a heat capacity (280.67 K, Liquid mixture 1) of 3914000 ± 150000 J/K/m3. It also gave a heat capacity (281.18 K, Liquid mixture 1) of 3913000 ± 150000 J/K/m3, a heat capacity (281.68 K, Liquid mixture 1) of 3910000 ± 150000 J/K/m3 and a heat capacity (282.18 K, Liquid mixture 1) of 3910000 ± 150000 J/K/m3. For the same molecule, the heat capacity (282.68 K, Liquid mixture 1) was 3907000 ± 150000 J/K/m3, the heat capacity (283.18 K, Liquid mixture 1) was 3907000 ± 150000 J/K/m3 and the heat capacity (283.68 K, Liquid mixture 1) was 3904000 ± 150000 J/K/m3. The heat capacity (284.18 K, Liquid mixture 1) was 3907000 ± 150000 J/K/m3, the heat capacity (284.68 K, Liquid mixture 1) was 3905000 ± 150000 J/K/m3 and the heat capacity (285.18 K, Liquid mixture 1) was 3909000 ± 150000 J/K/m3. The heat capacity (285.68 K, Liquid mixture 1) was 3905000 ± 150000 J/K/m3, the heat capacity (286.18 K, Liquid mixture 1) was 3903000 ± 150000 J/K/m3 and the heat capacity (286.68 K, Liquid mixture 1) was 3907000 ± 150000 J/K/m3. It also gave a heat capacity (287.18 K, Liquid mixture 1) of 3907000 ± 150000 J/K/m3, a heat capacity (287.68 K, Liquid mixture 1) of 3910000 ± 150000 J/K/m3 and a heat capacity (288.18 K, Liquid mixture 1) of 3913000 ± 150000 J/K/m3. It also gave a heat capacity (288.68 K, Liquid mixture 1) of 3913000 ± 150000 J/K/m3, a heat capacity (289.18 K, Liquid mixture 1) of 3912000 ± 150000 J/K/m3 and a heat capacity (289.68 K, Liquid mixture 1) of 3912000 ± 150000 J/K/m3. The heat capacity (290.18 K, Liquid mixture 1) was 3910000 ± 150000 J/K/m3, the heat capacity (290.68 K, Liquid mixture 1) was 3913000 ± 150000 J/K/m3 and the heat capacity (291.18 K, Liquid mixture 1) was 3912000 ± 150000 J/K/m3. It also gave a heat capacity (291.68 K, Liquid mixture 1) of 3913000 ± 150000 J/K/m3, a heat capacity (292.18 K, Liquid mixture 1) of 3916000 ± 150000 J/K/m3 and a heat capacity (292.68 K, Liquid mixture 1) of 3917000 ± 150000 J/K/m3. The heat capacity (293.18 K, Liquid mixture 1) was 3915000 ± 150000 J/K/m3, the heat capacity (293.68 K, Liquid mixture 1) was 3911000 ± 150000 J/K/m3 and the heat capacity (294.18 K, Liquid mixture 1) was 3914000 ± 150000 J/K/m3. The heat capacity (294.68 K, Liquid mixture 1) was 3914000 ± 150000 J/K/m3, the heat capacity (295.18 K, Liquid mixture 1) was 3913000 ± 150000 J/K/m3 and the heat capacity (295.68 K, Liquid mixture 1) was 3912000 ± 150000 J/K/m3. For the same molecule, the heat capacity (296.18 K, Liquid mixture 1) was 3913000 ± 150000 J/K/m3, the heat capacity (296.68 K, Liquid mixture 1) was 3912000 ± 150000 J/K/m3 and the heat capacity (297.18 K, Liquid mixture 1) was 3914000 ± 150000 J/K/m3. It also gave a heat capacity (297.69 K, Liquid mixture 1) of 3914000 ± 150000 J/K/m3, a heat capacity (298.19 K, Liquid mixture 1) of 3918000 ± 150000 J/K/m3 and a heat capacity (298.69 K, Liquid mixture 1) of 3919000 ± 150000 J/K/m3. For the same molecule, the heat capacity (299.19 K, Liquid mixture 1) was 3916000 ± 150000 J/K/m3, the heat capacity (299.78 K, Liquid mixture 1) was 3918000 ± 150000 J/K/m3 and the heat capacity (299.99 K, Liquid mixture 1) was 3916000 ± 150000 J/K/m3. For the same molecule, the heat capacity (300.2 K, Liquid mixture 1) was 3912000 ± 150000 J/K/m3, the heat capacity (300.41 K, Liquid mixture 1) was 3920000 ± 150000 J/K/m3 and the heat capacity (300.62 K, Liquid mixture 1) was 3927000 ± 150000 J/K/m3. The heat capacity (300.84 K, Liquid mixture 1) was 3944000 ± 150000 J/K/m3, the heat capacity (301.05 K, Liquid mixture 1) was 3932000 ± 150000 J/K/m3 and the heat capacity (301.26 K, Liquid mixture 1) was 3930000 ± 150000 J/K/m3. It also gave a heat capacity (301.47 K, Liquid mixture 1) of 3942000 ± 150000 J/K/m3, a heat capacity (301.69 K, Liquid mixture 1) of 3950000 ± 150000 J/K/m3 and a heat capacity (301.9 K, Liquid mixture 1) of 3947000 ± 150000 J/K/m3. It also gave a heat capacity (302.11 K, Liquid mixture 1) of 3945000 ± 150000 J/K/m3, a heat capacity (302.32 K, Liquid mixture 1) of 3932000 ± 150000 J/K/m3 and a heat capacity (302.54 K, Liquid mixture 1) of 3934000 ± 150000 J/K/m3. It also gave a heat capacity (302.75 K, Liquid mixture 1) of 3933000 ± 150000 J/K/m3, a heat capacity (302.96 K, Liquid mixture 1) of 3962000 ± 150000 J/K/m3 and a heat capacity (303.17 K, Liquid mixture 1) of 3969000 ± 150000 J/K/m3. It also gave a heat capacity (303.38 K, Liquid mixture 1) of 3938000 ± 150000 J/K/m3, a heat capacity (303.6 K, Liquid mixture 1) of 3938000 ± 150000 J/K/m3 and a heat capacity (303.81 K, Liquid mixture 1) of 3935000 ± 150000 J/K/m3. It also gave a heat capacity (304.02 K, Liquid mixture 1) of 3948000 ± 150000 J/K/m3, a heat capacity (304.23 K, Liquid mixture 1) of 3973000 ± 150000 J/K/m3 and a heat capacity (304.44 K, Liquid mixture 1) of 3963000 ± 150000 J/K/m3. It also gave a heat capacity (304.66 K, Liquid mixture 1) of 3960000 ± 150000 J/K/m3, a heat capacity (304.87 K, Liquid mixture 1) of 3953000 ± 150000 J/K/m3 and a heat capacity (305.08 K, Liquid mixture 1) of 3960000 ± 150000 J/K/m3. For the same molecule, the heat capacity (305.29 K, Liquid mixture 1) was 3975000 ± 150000 J/K/m3, the heat capacity (305.51 K, Liquid mixture 1) was 3976000 ± 150000 J/K/m3 and the heat capacity (305.72 K, Liquid mixture 1) was 3956000 ± 150000 J/K/m3. The heat capacity (305.93 K, Liquid mixture 1) was 4006000 ± 160000 J/K/m3, the heat capacity (306.14 K, Liquid mixture 1) was 4011000 ± 160000 J/K/m3 and the heat capacity (306.36 K, Liquid mixture 1) was 4082000 ± 160000 J/K/m3. It also gave a heat capacity (306.57 K, Liquid mixture 1) of 4075000 ± 160000 J/K/m3, a heat capacity (306.78 K, 102.6 kPa, Liquid) of 4520000 ± 180000 J/K/m3 and a heat capacity (306.99 K, 102.6 kPa, Liquid) of 4372000 ± 170000 J/K/m3. For the same molecule, the heat capacity (307.2 K, 102.6 kPa, Liquid) was 4347000 ± 170000 J/K/m3, the heat capacity (307.42 K, 102.6 kPa, Liquid) was 4321000 ± 170000 J/K/m3 and the heat capacity (307.63 K, 102.6 kPa, Liquid) was 4254000 ± 160000 J/K/m3. For the same molecule, the heat capacity (307.84 K, 102.6 kPa, Liquid) was 4227000 ± 160000 J/K/m3, the heat capacity (308.05 K, 102.6 kPa, Liquid) was 4182000 ± 160000 J/K/m3 and the heat capacity (308.27 K, 102.6 kPa, Liquid) was 4223000 ± 160000 J/K/m3. It also gave a heat capacity (308.48 K, 102.6 kPa, Liquid) of 4199000 ± 160000 J/K/m3, a heat capacity (308.69 K, 102.6 kPa, Liquid) of 4189000 ± 160000 J/K/m3 and a heat capacity (308.9 K, 102.6 kPa, Liquid) of 4170000 ± 160000 J/K/m3. The heat capacity (309.12 K, 102.6 kPa, Liquid) was 4188000 ± 160000 J/K/m3, the heat capacity (309.33 K, 102.6 kPa, Liquid) was 4206000 ± 160000 J/K/m3 and the heat capacity (309.54 K, 102.6 kPa, Liquid) was 4165000 ± 160000 J/K/m3. It also gave a heat capacity (309.75 K, 102.6 kPa, Liquid) of 4175000 ± 160000 J/K/m3, a heat capacity (309.96 K, 102.6 kPa, Liquid) of 4206000 ± 160000 J/K/m3 and a heat capacity (310.18 K, 102.6 kPa, Liquid) of 4189000 ± 160000 J/K/m3. For the same molecule, the heat capacity (310.39 K, 102.6 kPa, Liquid) was 4172000 ± 160000 J/K/m3, the heat capacity (310.6 K, 102.6 kPa, Liquid) was 4170000 ± 160000 J/K/m3 and the heat capacity (310.81 K, 102.6 kPa, Liquid) was 4154000 ± 160000 J/K/m3. It also gave a heat capacity (311.03 K, 102.6 kPa, Liquid) of 4103000 ± 160000 J/K/m3, a heat capacity (311.24 K, 102.6 kPa, Liquid) of 4121000 ± 160000 J/K/m3 and a heat capacity (311.45 K, 102.6 kPa, Liquid) of 4142000 ± 160000 J/K/m3. The heat capacity (311.66 K, 102.6 kPa, Liquid) was 4101000 ± 160000 J/K/m3, the heat capacity (311.88 K, 102.6 kPa, Liquid) was 4141000 ± 160000 J/K/m3 and the heat capacity (312.09 K, 102.6 kPa, Liquid) was 4083000 ± 160000 J/K/m3. The heat capacity (312.3 K, 102.6 kPa, Liquid) was 4117000 ± 160000 J/K/m3, the heat capacity (312.51 K, 102.6 kPa, Liquid) was 4078000 ± 160000 J/K/m3 and the heat capacity (312.73 K, 102.6 kPa, Liquid) was 4100000 ± 160000 J/K/m3.
